Holding throughout (test): NCI tumour cell line growth inhibition, 48 h
The subject of assay [1] is 786-0.
Assay [2] relates to CAKI-1.
Assay [3] deals with CCRF-CEM.
In assay [4] the test system is COLO 205.
For assay [5], the system named is HCT-15.
In assay [6] the test system is IGROV-1.
Assay [7] relates to MOLT-4.
The test system of assay [8] is NCI-H23.
For assay [9], the system named is OVCAR-8.
In assay [10] the test system is SK-MEL-28.
Assay [11] relates to SN12C.
In assay [12] the test system is SNB-19.
Assay [13] concerns SW-620.
In assay [14] the test system is SNB-75.
In assay [15] the test system is SK-MEL-2.

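96-well plates; 48 h exposure; 5 concentrations. Endpoints by linear interpolation between flanking doses. Not reached: highest tested concentration assigned. Abbreviation: GI50, concentration required for 50% inhibition of growth.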 Activity calls are given as the source filed them. Cut-off read from the data, not from the text of the source: active = GI50 up to about 1.1 µM and inactive = higher. Some results are limits rather than exact numbers.

With `CCCCCCCCCCCCCCCCCC(=O)NCCCNCCCNC(=O)CCCCCCCCCCCCCCCCC`, the GI50 is > 100 µM (inactive) in assay [1]; > 100 µM (inactive) in assay [2]; > 100 µM (inactive) in assay [3]; > 100 µM (inactive) in assay [4]; greater than 100 µM in assay [5]; > 100 µM (inactive) in [6]. The GI50 in assay [7], in [8], in assay [9], in assay [10], in assay [11] and in [12] was > 100 µM (inactive) throughout. In assay [13], the GI50 was > 100 µM (inactive).
Consider `COP1(=O)CC2C(Cl)(Cl)C2(C)C1` (centres undefined), for which the GI50 in assay [1], in assay [3], in assay [4], in [6], in assay [7] and in assay [8] was > 100 µM (inactive) throughout. In addition, the GI50 in [9], in [10], in assay [11], in [12], in assay [14] and in [13] was > 100 µM (inactive) in each case.
For `O/N=C1/CCCC/C1=C\c1ccc(Cl)c(Cl)c1`, the GI50 in [1] is 29.9 µM (inactive); in assay [2] it was 32.5 µM (inactive); in [3] it was 18.9 µM (inactive); in assay [4], 19.7 µM (inactive); in assay [5], 28.4 µM; in [6], 38 µM (inactive). For the same compound, the GI50 in assay [7] was 15.2 µM (inactive); in [8], 28.8 µM (inactive); in assay [9], 33.7 µM (inactive); in [10], 34.2 µM (inactive); in assay [11] it was 18.4 µM (inactive); in assay [12], 27.9 µM (inactive). Moreover, the figures for the GI50 in [14] and in assay [13] were 20.7 µM (inactive) and 46.6 µM (inactive), respectively.
As to `COC(=O)C(=O)C(CC(=O)Nc1ccc(C)cc1)C(=O)OC` (centres undefined), the GI50 in [1] is > 100 µM (inactive); in assay [2] it was > 100 µM (inactive); in assay [3], > 100 µM (inactive); in assay [5], greater than 100 µM; in [6], > 100 µM (inactive); in [7], > 100 µM (inactive). The GI50 in assay [8], in [9], in [10], in assay [15], in assay [11] and in assay [12] was > 100 µM (inactive) each time. Also, the GI50 in assay [13] is > 100 µM (inactive).
With `O=C1C2=C(CCCC2)Nc2cccc3ncn1c23`, the GI50 in assay [1] is > 100 µM (inactive); in assay [3], > 100 µM (inactive); in assay [4] it was > 100 µM (inactive); in assay [5] it was greater than 100 µM; in assay [7] it was > 100 µM (inactive); in assay [8], > 100 µM (inactive). In addition, the GI50 in assay [9], in assay [10], in assay [15], in assay [11], in [12] and in assay [13] was > 100 µM (inactive) each time.
For the compound `COc1ccc2[nH]c3c(O)nncc3c2c1`, the GI50 in [1] was 90.8 µM (inactive); in assay [3], > 100 µM (inactive); in [4] it was > 100 µM (inactive); in assay [5] it was greater than 100 µM; in [6], > 100 µM (inactive); in [7], > 100 µM (inactive). Also, the GI50 in assay [8] was > 100 µM (inactive); in assay [9], > 100 µM (inactive); in assay [10], > 100 µM (inactive); in [15], 71.3 µM (inactive); in [12], > 100 µM (inactive); in [14] it was 16.4 µM (inactive). The GI50 in assay [13] is > 100 µM (inactive).
Regarding `Nc1ccc2c(c1)Oc1c(F)c(F)cc3c(=O)c(C(=O)O)cn-2c13`, the GI50 in assay [1] is 28.1 µM (inactive); in [2], 32.1 µM (inactive); in assay [3], 33 µM (inactive); in assay [4], 45 µM (inactive); in assay [5] it was 46.2 µM; in assay [6] it was 38.6 µM (inactive). The GI50 in assay [7] was 24 µM (inactive); in assay [8], 64.1 µM (inactive); in assay [9] it was 40.2 µM (inactive); in assay [10], 40.3 µM (inactive); in assay [15] it was 80.2 µM (inactive); in assay [11], 39.1 µM (inactive). Further, the values for the GI50 in [12] and in assay [13] were 35.2 µM (inactive) and 41.3 µM (inactive), respectively.
With `C=CCCCN1CCCC(C)C1=S` (centres undefined), the GI50 in assay [1] was > 100 µM (inactive); in [3] it was > 100 µM (inactive); in [4], > 100 µM (inactive); in assay [5], greater than 100 µM; in [6] it was > 100 µM (inactive); in assay [7], > 100 µM (inactive). For the same compound, the GI50 was > 100 µM (inactive) in assay [8]; > 100 µM (inactive) in assay [9]; > 100 µM (inactive) in assay [10]; > 100 µM (inactive) in assay [15]; > 100 µM (inactive) in assay [12]; 52 µM (inactive) in assay [14]. Also, the GI50 in [13] is > 100 µM (inactive).
With `COC1=CC(=C(C#N)/C(=N\c2ccccc2)SC)C=C(OC)C1=O`, the GI50 in assay [1] was 31.6 µM (inactive); in assay [2] it was > 100 µM (inactive); in assay [3], 16 µM (inactive); in assay [4], > 100 µM (inactive); in [5] it was 80.7 µM; in assay [6], 86.1 µM (inactive). In addition, the GI50 in assay [7] was 20.8 µM (inactive); in assay [8], 54.5 µM (inactive); in [9], 31.1 µM (inactive); in [10] it was > 100 µM (inactive); in assay [11] it was > 100 µM (inactive); in [14], 95.3 µM (inactive). Further, the GI50 in assay [13] is 38.7 µM (inactive).
Turning to `COC(=O)c1ccccc1NC(=O)C(=O)NNC(=O)c1ccncc1`, the GI50 in assay [1] is > 100 µM (inactive); in assay [2], > 100 µM (inactive); in [3], > 100 µM (inactive); in assay [4], > 100 µM (inactive); in [5], greater than 100 µM; in assay [6] it was > 100 µM (inactive). The GI50 in assay [7], in assay [8], in assay [9], in assay [10], in [11] and in assay [12] was > 100 µM (inactive) throughout. The GI50 in [14] and in [13] was > 100 µM (inactive) each time.
With `CN(C)CCCNC(=O)N/N=C/c1cccc([N+](=O)[O-])c1`, the GI50 in assay [1] was > 100 µM (inactive); in [3], > 100 µM (inactive); in assay [5], greater than 100 µM; in [6], > 100 µM (inactive); in assay [7], > 100 µM (inactive); in assay [8] it was > 100 µM (inactive). Besides, the GI50 was > 100 µM (inactive) in assay [9]; > 100 µM (inactive) in assay [10]; > 100 µM (inactive) in [15]; > 100 µM (inactive) in assay [11]; > 100 µM (inactive) in assay [12]; 44 µM (inactive) in assay [14]. Further, the GI50 in [13] is > 100 µM (inactive).

These data come from ChEMBL document CHEMBL1201862, “PubChem BioAssay data set” (2004).
